Data from PubChem BioAssay AID1963426 (Molecular Pharmacology Branch, DTP, NCI, 2024).
Values belong to the molecule of their own block, whether it stands above or below them.

Tested on: 186277-243-T-J2-PDC complex spheroid growth, % test/control
Test: Anticancer human tumor 186277-243-T-J2-PDC patient-derived colon adenocarcinoma cell line growth inhibition [Asc]
Settings: for IC50: curve of first compound; for viability, T/C: stronger effect = lower value
Summary of the method: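 Stromal components (HUVEC and hMSC) are co-assembled with the cancer cells into multicellular spheroids. Drugs are then added singly or paired, at concentrations falling by half-log increments from a clinically achievable maximum, capped at 10 microM without known Cmax.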

[1] = second compound 0.01 µM, first compound 0.0316 µM
[2] = second compound 0.01 µM, first compound 0.1 µM
[3] = second compound 0.01 µM, first compound 0.316 µM
[4] = second compound 0.01 µM, first compound 1 µM
[5] = second compound 0.01 µM, first compound 3.16 µM
[6] = second compound 0.01 µM, first compound 10 µM
[7] = second compound 0.0316 µM, first compound 0.0316 µM
[8] = second compound 0.0316 µM, first compound 0.1 µM
[9] = second compound 0.0316 µM, first compound 0.316 µM
[10] = second compound 0.0316 µM, first compound 1 µM
[11] = second compound 0.0316 µM, first compound 3.16 µM
[12] = second compound 0.0316 µM, first compound 10 µM
[13] = second compound 0.1 µM, first compound 0.0316 µM
[14] = second compound 0.1 µM, first compound 0.1 µM
[15] = second compound 0.1 µM, first compound 0.316 µM
[16] = second compound 0.1 µM, first compound 1 µM
[17] = second compound 0.1 µM, first compound 3.16 µM
[18] = second compound 0.1 µM, first compound 10 µM
[19] = second compound 0.316 µM, first compound 0.0316 µM
[20] = second compound 0.316 µM, first compound 0.1 µM
[21] = second compound 0.316 µM, first compound 0.316 µM
[22] = second compound 0.316 µM, first compound 1 µM
[23] = second compound 0.316 µM, first compound 3.16 µM
[24] = second compound 0.316 µM, first compound 10 µM
[25] = second compound 1 µM, first compound 0.0316 µM
[26] = second compound 1 µM, first compound 0.1 µM
[27] = second compound 1 µM, first compound 0.316 µM
[28] = second compound 1 µM, first compound 1 µM
[29] = second compound 1 µM, first compound 3.16 µM
[30] = second compound 1 µM, first compound 10 µM
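Further: spheroids exposed to agents for 7 days.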
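Wherever viability, T/C is given: 100% = DMSO vehicle control wells.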

SMILES: CCN1C(C(=O)NC23CCC(C(=O)O)(CC2)CC3)C(c2cccc(Cl)c2F)C2(C(=O)Nc3cc(Cl)ccc32)C12CCCCC2 (stereo not given) + CNC(C)C(=O)NC1CN(S(=O)(=O)c2cccc(S(=O)(=O)N3CCC4CCC(C(=O)NC(c5ccccc5)c5ccccc5)N4C(=O)C(NC(=O)C(C)NC)C3)c2)CCC2CCC(C(=O)NC(c3ccccc3)c3ccccc3)N2C1=O
IC50 (second compound 0.01 µM): > 3000 nM
IC50 (second compound 0.0316 µM): 2690 nM
IC50 (second compound 0.1 µM): 2820 nM
IC50 (second compound 0.316 µM): 2690 nM
IC50 (second compound 1 µM): 2390 nM
viability, T/C (second compound 0.01 µM, first compound 0.00949 µM): 116%
viability, T/C (second compound 0.01 µM, first compound 0.03 µM): 147%
viability, T/C (second compound 0.01 µM, first compound 0.0949 µM): 155%
viability, T/C (second compound 0.01 µM, first compound 0.3 µM): 115%
viability, T/C (second compound 0.01 µM, first compound 0.949 µM): 76.7%
viability, T/C (second compound 0.01 µM, first compound 3 µM): 53.6%
viability, T/C (second compound 0.0316 µM, first compound 0.00949 µM): 112%
viability, T/C (second compound 0.0316 µM, first compound 0.03 µM): 141%
viability, T/C (second compound 0.0316 µM, first compound 0.0949 µM): 152%
viability, T/C (second compound 0.0316 µM, first compound 0.3 µM): 125%
viability, T/C (second compound 0.0316 µM, first compound 0.949 µM): 84.5%
viability, T/C (second compound 0.0316 µM, first compound 3 µM): 46.3%
viability, T/C (second compound 0.1 µM, first compound 0.00949 µM): 131%
viability, T/C (second compound 0.1 µM, first compound 0.03 µM): 143%
viability, T/C (second compound 0.1 µM, first compound 0.0949 µM): 147%
viability, T/C (second compound 0.1 µM, first compound 0.3 µM): 122%
viability, T/C (second compound 0.1 µM, first compound 0.949 µM): 76.5%
viability, T/C (second compound 0.1 µM, first compound 3 µM): 48.2%
viability, T/C (second compound 0.316 µM, first compound 0.00949 µM): 129%
viability, T/C (second compound 0.316 µM, first compound 0.03 µM): 149%
viability, T/C (second compound 0.316 µM, first compound 0.0949 µM): 149%
viability, T/C (second compound 0.316 µM, first compound 0.3 µM): 118%
viability, T/C (second compound 0.316 µM, first compound 0.949 µM): 75%
viability, T/C (second compound 0.316 µM, first compound 3 µM): 46.8%
viability, T/C (second compound 1 µM, first compound 0.00949 µM): 134%
viability, T/C (second compound 1 µM, first compound 0.03 µM): 132%
viability, T/C (second compound 1 µM, first compound 0.0949 µM): 159%
viability, T/C (second compound 1 µM, first compound 0.3 µM): 118%
viability, T/C (second compound 1 µM, first compound 0.949 µM): 74.9%
viability, T/C (second compound 1 µM, first compound 3 µM): 43.5%

SMILES: COc1c(OCCCN2CCOCC2)ccc2c3n(c(=NC(=O)c4cnc(N)nc4)nc12)CCN3 + CNC(C)C(=O)NC1CN(S(=O)(=O)c2cccc(S(=O)(=O)N3CCC4CCC(C(=O)NC(c5ccccc5)c5ccccc5)N4C(=O)C(NC(=O)C(C)NC)C3)c2)CCC2CCC(C(=O)NC(c3ccccc3)c3ccccc3)N2C1=O
IC50 (second compound 0.01 µM): 72.3 nM
IC50 (second compound 0.0316 µM): 98.2 nM
IC50 (second compound 0.1 µM): 82.1 nM
IC50 (second compound 0.316 µM): 86.3 nM
IC50 (second compound 1 µM): 84.8 nM
viability, T/C (second compound 0.01 µM, first compound 0.00316 µM): 98.5%
viability, T/C (second compound 0.01 µM, first compound 0.01 µM): 105%
viability, T/C [1]: 62.4%
viability, T/C [2]: 47.4%
viability, T/C [3]: 25.2%
viability, T/C [4]: 19.6%
viability, T/C (second compound 0.0316 µM, first compound 0.00316 µM): 99.3%
viability, T/C (second compound 0.0316 µM, first compound 0.01 µM): 128%
viability, T/C [7]: 77.7%
viability, T/C [8]: 54.3%
viability, T/C [9]: 24.9%
viability, T/C [10]: 19.1%
viability, T/C (second compound 0.1 µM, first compound 0.00316 µM): 114%
viability, T/C (second compound 0.1 µM, first compound 0.01 µM): 120%
viability, T/C [13]: 68.3%
viability, T/C [14]: 50.9%
viability, T/C [15]: 25.1%
viability, T/C [16]: 18.1%
viability, T/C (second compound 0.316 µM, first compound 0.00316 µM): 108%
viability, T/C (second compound 0.316 µM, first compound 0.01 µM): 113%
viability, T/C [19]: 74.9%
viability, T/C [20]: 48.5%
viability, T/C [21]: 25.6%
viability, T/C [22]: 18.5%
viability, T/C (second compound 1 µM, first compound 0.00316 µM): 108%
viability, T/C (second compound 1 µM, first compound 0.01 µM): 104%
viability, T/C [25]: 75.2%
viability, T/C [26]: 48.2%
viability, T/C [27]: 21.3%
viability, T/C [28]: 17.7%

Now from value to molecule, other results behind:

IC50 (second compound 0.01 µM): 571 nM
IC50 (second compound 0.0316 µM): 560 nM
IC50 (second compound 0.1 µM): 452 nM
IC50 (second compound 0.316 µM): 313 nM
IC50 (second compound 1 µM): 230 nM
SMILES: C#Cc1c(F)ccc2cc(O)cc(-c3ncc4c(N5CC6CCC(C5)N6)nc(OCC56CCCN5CC(F)C6)nc4c3F)c12 (stereo not given) + CNC(C)C(=O)NC1CN(S(=O)(=O)c2cccc(S(=O)(=O)N3CCC4CCC(C(=O)NC(c5ccccc5)c5ccccc5)N4C(=O)C(NC(=O)C(C)NC)C3)c2)CCC2CCC(C(=O)NC(c3ccccc3)c3ccccc3)N2C1=O
viability, T/C [1]: 110%
viability, T/C [2]: 110%
viability, T/C [3]: 68.6%
viability, T/C [4]: 31.6%
viability, T/C [5]: 18.1%
viability, T/C [6]: 10.9%
viability, T/C [7]: 119%
viability, T/C [8]: 98.4%
viability, T/C [9]: 72.2%
viability, T/C [10]: 27.7%
viability, T/C [11]: 16.8%
viability, T/C [12]: 9.61%
viability, T/C [13]: 111%
viability, T/C [14]: 99.9%
viability, T/C [15]: 61%
viability, T/C [16]: 24.6%
viability, T/C [17]: 13.2%
viability, T/C [18]: 8.58%
viability, T/C [19]: 128%
viability, T/C [20]: 90%
viability, T/C [21]: 53.2%
viability, T/C [22]: 18.4%
viability, T/C [23]: 10.1%
viability, T/C [24]: 8.04%
viability, T/C [25]: 123%
viability, T/C [26]: 91.4%
viability, T/C [27]: 34%
viability, T/C [28]: 11.7%
viability, T/C [29]: 8.66%
viability, T/C [30]: 6.64%

IC50 (second compound 0.01 µM): 8070 nM
IC50 (second compound 0.0316 µM): 7280 nM
IC50 (second compound 0.1 µM): 6660 nM
IC50 (second compound 0.316 µM): 6860 nM
IC50 (second compound 1 µM): 6260 nM
SMILES: C=C(F)C(=O)N1CCN(c2nc(OCC3CCCN3C)nc3c2CCN(c2cccc4cccc(Cl)c24)C3)CC1CC#N (stereo not given) + CNC(C)C(=O)NC1CN(S(=O)(=O)c2cccc(S(=O)(=O)N3CCC4CCC(C(=O)NC(c5ccccc5)c5ccccc5)N4C(=O)C(NC(=O)C(C)NC)C3)c2)CCC2CCC(C(=O)NC(c3ccccc3)c3ccccc3)N2C1=O
viability, T/C [1]: 133%
viability, T/C [2]: 122%
viability, T/C [3]: 117%
viability, T/C [4]: 112%
viability, T/C [5]: 121%
viability, T/C [6]: 33.9%
viability, T/C [7]: 108%
viability, T/C [8]: 109%
viability, T/C [9]: 99.2%
viability, T/C [10]: 102%
viability, T/C [11]: 117%
viability, T/C [12]: 28.2%
viability, T/C [13]: 108%
viability, T/C [14]: 109%
viability, T/C [15]: 120%
viability, T/C [16]: 119%
viability, T/C [17]: 131%
viability, T/C [18]: 13.1%
viability, T/C [19]: 127%
viability, T/C [20]: 120%
viability, T/C [21]: 104%
viability, T/C [22]: 118%
viability, T/C [23]: 132%
viability, T/C [24]: 15.8%
viability, T/C [25]: 113%
viability, T/C [26]: 102%
viability, T/C [27]: 117%
viability, T/C [28]: 108%
viability, T/C [29]: 118%
viability, T/C [30]: 7.88%

IC50 (second compound 0.01 µM): > 10000 nM
IC50 (second compound 0.0316 µM): > 10000 nM
IC50 (second compound 0.1 µM): > 10000 nM
IC50 (second compound 0.316 µM): > 10000 nM
IC50 (second compound 1 µM): > 10000 nM
SMILES: C=CC(=O)N1CCN(c2nc(=O)n(-c3c(C)ccnc3C(C)C)c3nc(-c4c(O)cccc4F)c(F)cc23)C(C)C1 (stereo not given) + CNC(C)C(=O)NC1CN(S(=O)(=O)c2cccc(S(=O)(=O)N3CCC4CCC(C(=O)NC(c5ccccc5)c5ccccc5)N4C(=O)C(NC(=O)C(C)NC)C3)c2)CCC2CCC(C(=O)NC(c3ccccc3)c3ccccc3)N2C1=O
viability, T/C [1]: 102%
viability, T/C [2]: 114%
viability, T/C [3]: 117%
viability, T/C [4]: 100%
viability, T/C [5]: 112%
viability, T/C [6]: 104%
viability, T/C [7]: 118%
viability, T/C [8]: 104%
viability, T/C [9]: 122%
viability, T/C [10]: 116%
viability, T/C [11]: 100%
viability, T/C [12]: 108%
viability, T/C [13]: 124%
viability, T/C [14]: 108%
viability, T/C [15]: 124%
viability, T/C [16]: 114%
viability, T/C [17]: 122%
viability, T/C [18]: 113%
viability, T/C [19]: 124%
viability, T/C [20]: 118%
viability, T/C [21]: 120%
viability, T/C [22]: 130%
viability, T/C [23]: 112%
viability, T/C [24]: 110%
viability, T/C [25]: 112%
viability, T/C [26]: 124%
viability, T/C [27]: 109%
viability, T/C [28]: 106%
viability, T/C [29]: 127%
viability, T/C [30]: 118%
